Data taken from patent EP0146155A1, “Ether of N-propanolamine derivative” (AKZO N.V., priority 1983, dated 1985).

Columns and labels:
[1] = tested on: rat; assay: arrhythmogenic activity under specific hypokalaemic conditions in the rat; type: in vivo
[2] = tested on: patients; details: clinical use; predominantly elderly patients, often hypokalaemic conditions; cited from earlier work
[3] = tested on: calcium; assay: calcium-antagonistic activity (measure for anti-anginal activity); details: compared with either the racemate or the levo-rotatory isomer
[4] = anti-arrhythmic potency; details: compared with the racemate and the levo-rotatory isomer
[5] = QTc prolongation in the ECG (electrocardiogram); type: in vivo
[6] = solubility in water; type: physicochemical; details: compared with the racemate

SMILES	arrhythmogenic activity [1]	rhythm disturbance of the ventricular tachycardia type [2]	calcium-antagonistic activity [3]	anti-arrhythmic potency [4]	QTc prolongation [5]	solubility in water [6]
CC(C)COCC(CN(Cc1ccccc1)c1ccccc1)N1CCCC1 (racemic) [racemate, bepridil, reference compound]	exacerbates arrhythmias	in rare cases been attended by a self limiting rhythm disturbance of the so-called ventricular tachycardia type	–	–	–	–
CC(C)COC[C@@H](CN(Cc1ccccc1)c1ccccc1)N1CCCC1 [R-(dextro-rotatory) isomer, R-β-[(2-methylpropoxy)-methyl]-N-phenyl-N-(phenylmethyl)-l-pyrrolidine-ethanamine]	do not possess arrhythmogenic activity	–	significant increase of calcium-antagonistic activity	not significantly different	does not produce QTc prolongation	much better solubility in water than the racemate
